One series is described as follows: RP, 100 × 0.5 mm, 2.7 µm, 45 °C, 0.015 mL/min, estimated dead time 0.83 min; A: water + 0.9% formic acid; B: acetonitrile + 0.9% formic acid; gradient (min/%B) 0/1 0.5/1 4/95 4.5/1 5/1. The following applies: stereoisomer not certain.
With `Oc1cc(O)c2c(c1)OC(c1ccc(O)c(O)c1)C(O)C2` (single isomer, unassigned; (-)) [(-)-Epicatechin], the LC retention time was 2.32 min.
For `O=c1c(O)c(-c2ccc(O)cc2)oc2cc(O)cc(O)c12` [Kaempferol], the LC retention time is 3.2 min.
Still for that read-out and setting: with `O=c1c(OS(=O)(=O)O)c(-c2ccc(O)c(O)c2)oc2cc(O)cc(O)c12` [Quercetin 3-O-sulfate] the figure was 2.82 min; with `O=c1cc(-c2ccc(O)c(O)c2)oc2cc(O)cc(O)c12` [Luteolin], 2.97 min.
On the same count and under the same terms, the value for `COc1cc(C=O)ccc1O` [Vanillin] was 2.71 min.
As for `O=c1c(-c2ccc(O)cc2)coc2cc(O)cc(O)c12` [Genistein], the LC retention time was 3.17 min.

The next series in a line: RP, 50 × 0.5 mm, 2.7 µm, 35 °C, 0.01 mL/min, estimated dead time 0.62 min; A: water + 0.1% formic acid, pH 3; B: acetonitrile + 0.1% formic acid, pH 3; gradient (min/%B) 0/5 12/95 14/95 16/5. The note with it: stereoisomer not certain.
Regarding `Oc1cc(O)c2c(c1)OC(c1ccc(O)c(O)c1)C(O)C2` (single isomer, unassigned; (-)) [(-)-Epicatechin], the LC retention time is 3.43 min.
The same measure, in the same setting: with `O=c1c(O)c(-c2ccc(O)cc2)oc2cc(O)cc(O)c12` [Kaempferol] the figure was 6.31 min.
Still for that read-out and setting: with `O=c1cc(-c2ccc(O)c(O)c2)oc2cc(O)cc(O)c12` [Luteolin] the figure was 5.79 min; with `COc1cc(C=O)ccc1O` [Vanillin], 3.51 min; with `O=c1c(-c2ccc(O)cc2)coc2cc(O)cc(O)c12` [Genistein], 6.06 min.

A further series in a line: Other, Phenomenex Kinetex PFP, 100 × 4.6 mm, 5 µm, 45 °C, 0.6 mL/min, estimated dead time 1.8 min; A: water + 0.1% trifluoroacetic acid, pH 2; B: methanol; gradient (min/%B) 0/40 20/72 21/40. The following applies: stereoisomer not certain.
In the case of `O=c1c(OS(=O)(=O)O)c(-c2ccc(O)c(O)c2)oc2cc(O)cc(O)c12` [Quercetin 3-O-sulfate], the LC retention time is 14.7 min.
For `O=c1cc(-c2ccc(O)c(O)c2)oc2cc(O)cc(O)c12` [Luteolin], the LC retention time was 18.6 min.
As for `COc1cc(C=O)ccc1O` [Vanillin], the LC retention time was 6.9 min.
On the same count and under the same terms, the value for `O=c1c(-c2ccc(O)cc2)coc2cc(O)cc(O)c12` [Genistein] was 18 min.

Another series in a line: RP, 150 × 2.1 mm, 2.6 µm, 40 °C, 0.35 mL/min, estimated dead time 0.94 min; A: water + 0.1% formic acid, pH 3; B: acetonitrile + 0.1% formic acid, pH 3; gradient (min/%B) 0/0 1/0 12.5/100 14/100 14.2/0 15/0. The note with it: stereoisomer not certain.
With `O=c1cc(-c2ccc(O)c(O)c2)oc2cc(O)cc(O)c12` [Luteolin], the LC retention time is 7.14 min.
On to `O=c1c(-c2ccc(O)cc2)coc2cc(O)cc(O)c12` [Genistein], for which the LC retention time is 7.65 min.

A further series can be described thus: RP, 150 × 2.1 mm, 2.6 µm, 40 °C, 0.35 mL/min, estimated dead time 0.94 min; A: water + 0.1% formic acid, pH 3; B: acetonitrile + 0.1% formic acid, pH 3; gradient (min/%B) 0/0 1/5 7/45 8.5/80 10.5/80 11/5 12/5. The following applies: stereoisomer not certain.
Consider `O=c1cc(-c2ccc(O)c(O)c2)oc2cc(O)cc(O)c12` [Luteolin], for which the LC retention time was 7.52 min.
The same measure, in the same setting: with `O=c1c(-c2ccc(O)cc2)coc2cc(O)cc(O)c12` [Genistein] the figure was 8.03 min.

A short description of another series: RP, Phenomenex Kinetex EVO C18, 100 × 2.1 mm, 2.6 µm, 40 °C, 0.4 mL/min, estimated dead time 0.55 min; A: water + 0.2% formic acid; B: acetonitrile + 0.2% formic acid; gradient (min/%B) 0/5 0.5/5 7/95 8/95 8.5/5 12/5. The note with it: stereoisomer not certain.
Take `O=c1c(OS(=O)(=O)O)c(-c2ccc(O)c(O)c2)oc2cc(O)cc(O)c12` [Quercetin 3-O-sulfate]: the LC retention time was 6.76 min.

Another series is described as follows: RP, Phenomenex Synergi Hydro-RP, 150 × 2 mm, 4 µm, 30 °C, 0.5 mL/min, estimated dead time 0.6 min; A: water + 0.1% formic acid, pH 3; B: acetonitrile + 0.1% formic acid, pH 3; gradient (min/%B) 0/5 1/5 35/45 40/100 45/100. The note with it: stereoisomer not certain.
As for `Oc1cc(O)c2c(c1)OC(c1ccc(O)c(O)c1)C(O)C2` (single isomer, unassigned; (-)) [(-)-Epicatechin], the LC retention time was 11.3 min.
Same read-out and setting: with `O=c1c(O)c(-c2ccc(O)cc2)oc2cc(O)cc(O)c12` [Kaempferol] the figure was 26.7 min.
Take `O=c1c(OS(=O)(=O)O)c(-c2ccc(O)c(O)c2)oc2cc(O)cc(O)c12` [Quercetin 3-O-sulfate]: the LC retention time was 20.2 min.
The same measure, in the same setting: the value for `O=c1cc(-c2ccc(O)c(O)c2)oc2cc(O)cc(O)c12` [Luteolin] was 22.6 min; that for `O=c1c(-c2ccc(O)cc2)coc2cc(O)cc(O)c12` [Genistein] was 25.7 min.

The nature of a further series: RP, Phenomenex Luna Omega Polar C18, 100 × 2.1 mm, 1.6 µm, 40 °C, 0.5 mL/min, estimated dead time 0.44 min; A: water + 0.5% formic acid; B: acetonitrile + 0.5% formic acid; gradient (min/%B) 0/5 3/50 3.1/100 5/100 5.1/5 7/5. The note with it: stereoisomer not certain.
Regarding `Oc1cc(O)c2c(c1)OC(c1ccc(O)c(O)c1)C(O)C2` (single isomer, unassigned; (-)) [(-)-Epicatechin], the LC retention time was 1.99 min.
Same read-out and setting: the value for `O=c1c(O)c(-c2ccc(O)cc2)oc2cc(O)cc(O)c12` [Kaempferol] was 3.7 min; that for `O=c1c(OS(=O)(=O)O)c(-c2ccc(O)c(O)c2)oc2cc(O)cc(O)c12` [Quercetin 3-O-sulfate] was 2.93 min.
Still for that read-out and setting: the value for `O=c1cc(-c2ccc(O)c(O)c2)oc2cc(O)cc(O)c12` [Luteolin] was 3.57 min; that for `COc1cc(C=O)ccc1O` [Vanillin] was 2.44 min; that for `O=c1c(-c2ccc(O)cc2)coc2cc(O)cc(O)c12` [Genistein] was 3.49 min.

A short description of another series: RP, Phenomenex Luna C18, 150 × 4.6 mm, 3 µm, 25 °C, 0.5 mL/min, estimated dead time 3.2 min; A: water + 0.1% formic acid, pH 3; B: acetonitrile + 0.1% formic acid, pH 3; gradient (min/%B) 0/0 30/30 35/40 50/80 52/80 60/0 65/0. The note with it: stereoisomer not certain.
`Oc1cc(O)c2c(c1)OC(c1ccc(O)c(O)c1)C(O)C2` (single isomer, unassigned; (-)) [(-)-Epicatechin]: the LC retention time was 15.9 min.
Consider `O=c1c(O)c(-c2ccc(O)cc2)oc2cc(O)cc(O)c12` [Kaempferol], for which the LC retention time was 37.7 min.
On the same count and under the same terms, with `O=c1c(OS(=O)(=O)O)c(-c2ccc(O)c(O)c2)oc2cc(O)cc(O)c12` [Quercetin 3-O-sulfate] the figure was 46.2 min; with `O=c1cc(-c2ccc(O)c(O)c2)oc2cc(O)cc(O)c12` [Luteolin], 42.1 min; with `COc1cc(C=O)ccc1O` [Vanillin], 21.1 min.
The same measure, in the same setting: the value for `O=c1c(-c2ccc(O)cc2)coc2cc(O)cc(O)c12` [Genistein] was 41.5 min.

A further series can be described thus: RP, Waters ACQUITY UPLC HSS T3, 100 × 2.1 mm, 50 °C; A: water + 0.1% formic acid, pH 3; B: 30% methanol + 70% acetonitrile + 0.1% formic acid, pH 3; gradient (min/%B) 0/5 1/8 2/15 3/40 4/70 4.5/100 5/100 6.4/100 6.6/5 6.8/5 7/5. The following applies: stereoisomer not certain.
Take `O=c1c(O)c(-c2ccc(O)cc2)oc2cc(O)cc(O)c12` [Kaempferol]: the LC retention time is 3.88 min.
On the same count and under the same terms, the value for `O=c1cc(-c2ccc(O)c(O)c2)oc2cc(O)cc(O)c12` [Luteolin] was 3.75 min.
Still for that read-out and setting: the value for `COc1cc(C=O)ccc1O` [Vanillin] was 3.46 min.

Another series can be described thus: RP, Merck LiChrospher RP-18, 250 × 4 mm, 5 µm, 35 °C, 0.3 mL/min, estimated dead time 6.7 min; A: water + 0.5% formic acid; B: acetonitrile + 0.5% formic acid; gradient (min/%B) 0/5 10/5 30/15 45/20 65/20 95/54 110/63 115/5 135/5. The following applies: stereoisomer not certain.
Take `O=c1c(O)c(-c2ccc(O)cc2)oc2cc(O)cc(O)c12` [Kaempferol]: the LC retention time is 97.6 min.
The same measure, in the same setting: with `O=c1cc(-c2ccc(O)c(O)c2)oc2cc(O)cc(O)c12` [Luteolin] the figure was 91.1 min.
With `COc1cc(C=O)ccc1O` [Vanillin], the LC retention time is 54.7 min.

Another series in a line: RP, Phenomenex Luna Omega Polar C18, 100 × 2.1 mm, 1.6 µm, 40 °C, 0.5 mL/min, estimated dead time 0.44 min; A: water + 0.1% formic acid + 10 mM ammonium formate; B: acetonitrile; gradient (min/%B) 0/5 8/20 10/100 12/100 12.1/5 14/5. The note with it: stereoisomer not certain.
As to `Oc1cc(O)c2c(c1)OC(c1ccc(O)c(O)c1)C(O)C2` (single isomer, unassigned; (-)) [(-)-Epicatechin], the LC retention time was 4.95 min.
